# Assay results published in patent publication US10106540B2, “HDAC6 inhibitors and their uses” (Universität Regensburg, priority 2014, dated 2018).
# pIC50: −log10 of the molar value.
# Key:
# [1] = system: MV4-11, BV173 and HCT116 cells; experiment: Dose and time dependency of MARB1, Western blot method b; type: cell-based, human; settings: 50 nM
# Procedure: Cells were seeded on a 6 well plate and incubated as shown. The blots were quantified with Image Studio Lite Version 5.0. (A) 1 Mio cells per sample were seeded and after 2 h adaption time the cells were stimulated as shown, followed by incubation and harvesting of the cells. Tubulin and HSP90 were used as loading control. […] HSP90 and Tubulin were used as loading control. n=1 (C) 200,000 cells were seeded in a 6 well plate and incubated over night for adhesion. B-Actin was used as loading control. n=1
# For the examination of the time dependency of MARB1 MV4-11, BV173 and HCT116 cells were tested by western blot. All cells were seeded on a 6 well plate. The blots were quantified with Image Studio Lite Version 5.0. (A) 1 Mio cells per sample were seeded and after 2 h adaption time the cells were stimulated as shown. Following the incubation, the cells were harvested as described earlier. Tubulin and HSP90 were used as loading control. […] HSP90 was used as loading control. […]
# (§1) Western Blot analysis method b was used for the blots illustrated in FIGS. 6 to 9 and 11: Equal amounts of proteins were separated with a sodium dodecyl sulfate-polyacrylamide gel electrophoresis (SDS-PAGE) using an electrophoresis buffer by Laemmli with 1% SDS. […] Fluorescence coupled secondary antibodies (LI-COR) were used and the signal was measured on the Odyssey to detect the proteins.
# [2] = system: HEK293T cells; experiment: HDAC6 overexpression model in HEK293T cells, Western blot; type: cell-based, human; settings: 500 nM MARB1, 48 h
# Procedure: However, it is mention worth that MARB1 increases the amount of acetylated tubulin in cells with HDAC6 overexpression. 400,000 cells were seeded on a 6 well plate and incubated for 24 h for adapting and the transfection was allowed for 48 h. […] HSP90 and Tubulin were used as loading control. The cells were collected on ice using Trypsin/EDTA. The overexpression was identified by using the HDAC6 antibody described in Antibodies and Plasmids. n=3 (B) The cells were transfected as described previously and collected under sterile conditions using Trypsin/EDTA. Cells were centrifuged and resuspended in new DMEM with FBS and pen/strep. The cells were splitted 1:2 and seeded per sample into two wells. After 24 h adhesion time cells were stimulated with MARB1 for 48 h. Thereafter cells were collected on ice using Trypsin/EDTA and prepared for SDS-PAGE. […] The samples were generated as described previously. HSP90 was used as loading control. n=1 […]
# as §1, with “proteins. […]” for “proteins.”
# [3] = system: BV-173 cells; experiment: Flow cytometric analysis of BV-173 cells, combination with imatinib; type: cell-based, human; settings: BV-173, 1 μM MARB1 or 2 μM MARB2 combined with 0.2 or 0.5 μM imatinib, 48 h
# Procedure: Flow cytometric analysis of the induction of (A) apoptotic DNA fragmentation and (B) Cell cycle analysis of BV 173 cells. The cells were kept as control cells (Ctl), treated with 1 μM or 2 μM MARB1 MARB2 and 0.2 or 0.5 μM imatinib for 48 h. The data was received by two independent experiments. The individual compounds show only slight effects in the used concentrations; whereas their combination can effectively kill leukemic cells. (C) Western blot analysis on data from the BCR-ABL, acetylated tubulin and α-sliced PARP1; the total amount of tubulin-α serves as a loading control. BV-173 cells were treated for 24 h with 1 μM, or 2 μM MARB1 or MARB2.
# Human leukemia cell lines BV 173 and K562 with BCR-ABL mutation (Leibniz Institute DSMZ—German Collection of Microorganisms and Cell Cultures, DSMZ Accession Nos: ACC-20 and ACC-10).
# The assay is carried out as described in Pietschmann et al., 2012 and Brandl et al. 2012. Briefly, 10^5 cells were fixed in 1 ml 70% EtOH with 0.05% Tween-20 overnight at 4° C. The following day, cells were washed with 3 ml 38 mM sodium citrate, pH 7.4, and incubated for 20 min at 37° C. in 0.5 ml 38 mM sodium citrate, pH 7.4, supplemented with 50 μg/ml propidium iodide and 10 μg/ml RNase-A. DNA contents of the cells were measured by fluorescence-activated cell sorter (FACS). […] Equally, the cell cycle profile can be assessed with this method.
# [4] = system: HCT-116 cells; experiment: Western blot analysis in HCT-116 colon cancer cells; type: cell-based, human
# Procedure: FIG. 5. Various cancer cells were treated for 24 h as shown and tested by Western blot analysis. […] Human colon cancer cell lines RKO (ATCC Accession No: CRL-2577) and HCT-116 (DSMZ Accession No: ACC-581). Western Blot Analysis a […] Protein lysate ([…]) was boiled in Laemmli buffer and separated on SDS-polyacrylamide gel electrophoresis for western blotting with specific antibodies. All lysates were assessed by Bradford assay for protein concentrations.
# [5] = system: UXF 1138; experiment: In vitro activity against solid tumor cell lines (FACS analysis method a); type: cell-based; settings: Homo sapiens, Uterus
# Procedure: Human uterus cancer cell line UXF 1138 (Oncotest GmbH, Freiburg, Germany)
# The assay is carried out as described in Pietschmann et al., 2012 and Brandl et al. 2012. Briefly, 10^5 cells were fixed in 1 ml 70% EtOH with 0.05% Tween-20 overnight at 4° C. The following day, cells were washed with 3 ml 38 mM sodium citrate, pH 7.4, and incubated for 20 min at 37° C. in 0.5 ml 38 mM sodium citrate, pH 7.4, supplemented with 50 μg/ml propidium iodide and 10 μg/ml RNase-A. DNA contents of the cells were measured by fluorescence-activated cell sorter (FACS). This method allows detection of the apoptotic subG1-fraction, which has a DNA content below 2n due to apoptotic cleavage of DNA. Equally, the cell cycle profile can be assessed with this method.
# The novel HDAC6 inhibitors were tested in a panel of tumor cell lines for cytostatic/toxic activities (see Table 2).
compound,measurement,setting,value
"CN1C(=O)C2CN(Cc3c2c2ccccc2n3Cc2ccc(C(=O)NO)cc2)C1=O (stereo not shown) [MARB1, N-Hydroxy-4-((4-methyl-3,5-dioxo-3,4,5,6-tetrahydro-2,6-methano[1,3]diazocino[5,6-b]indol-11(1H)-yl)methyl)benzamide]",acetylated tubulin,[1]; incubation for 30 min,increase of acetylated tubulin is detectable
same,inhibition compared with Tubastatin A,[1]; short time course,faster and at later time points much more effective than Tubastatin A
same,tubulin acetylation in HDAC6 flag transfected cells,[2],high induction of tubulin acetylation
same,apoptotic and necrotic sub-G1 populations,[3],significantly increases
same,tubulin acetylation and degradation,"[4]; 1 μM, 24 h (FIG. 5B)",triggers the hyperacetylation of tubulin without causing its degradation
same,tubulin acetylation and degradation,"[4]; HCT-116 cells, 24 h",starts the hyperacetylation of tubulin in colon carcinoma cells (RKO and HCT-116 cells) without destroying it
same,pIC50,[5],5.80
